According to patent US10118892B2, “Compounds and their synthesis” (UCL BUSINESS PLC, priority 2012, dated 2018):

Tests used:
[1] = Biodistribution studies: blood and brain uptake of radiotracer over time; assay type: in vivo, Balb/C or FVB mice; details: mice
Protocol: (§1) A series of radiolabelled tracers was prepared using the reported chemistry and investigated in vivo (Balb/C or FVB mice) by biodistribution studies and/or metabolite analysis. Examples in FIGS. 7-10 highlight the versatility of the reported chemistry that allows for tracers with a variety of backbone structures and side chains. By deliberately modifying chemical moieties the tracer can be fine-tuned towards up-take in tissues of interest, e.g. brain, heart or lungs. FIGS. 11-15 show the results of the in vivo investigation of a potential pro-drug tracer that was developed to monitor the efflux pump P-glycoprotein at the blood-brain barrier.
Female Balb/C mice and FVB mice were obtained from Charles River UK. When used, they were eight to eleven weeks old and weighing approximately 20 g. […]
(§2) The respective radiotracer (0.5-1 MBq formulated in a saline solution containing 5% ethanol) was administered intravenously into the tail vein. […] The organs of interest (blood, colon, stomach, spleen, kidneys, liver, heart, lungs, tail, femur, skull, and brain) were sampled, weighed, and the radioactivity content was measured by automated gamma counting (Cobra Multi Gamma Model 5010-Packard, UK). Results were normalised to the radioactivity found in 1% of the injected dose per gram bodyweight. All experiments were performed in duplicates or triplicates and analysed using Microsoft Office Excel 2007.

[2] = biological target: T1, P-glycoprotein at the blood-brain barrier (Mus musculus, UniProt P21447); assay: Biodistribution with P-glycoprotein activity inhibited by concomitant tariquidar (TQD); assay type: in vivo, Balb/C or FVB mice; details: mice, with and without TQD (FIG. 15)
T1 construct: investigated in vivo (Balb/C or FVB mice) by biodistribution studies and/or metabolite analysis; tissue Charles River UK; host or cells: living Balb/C or FVB mice; blood-brain barrier / brain
T1 sequence (P21447 whole entry): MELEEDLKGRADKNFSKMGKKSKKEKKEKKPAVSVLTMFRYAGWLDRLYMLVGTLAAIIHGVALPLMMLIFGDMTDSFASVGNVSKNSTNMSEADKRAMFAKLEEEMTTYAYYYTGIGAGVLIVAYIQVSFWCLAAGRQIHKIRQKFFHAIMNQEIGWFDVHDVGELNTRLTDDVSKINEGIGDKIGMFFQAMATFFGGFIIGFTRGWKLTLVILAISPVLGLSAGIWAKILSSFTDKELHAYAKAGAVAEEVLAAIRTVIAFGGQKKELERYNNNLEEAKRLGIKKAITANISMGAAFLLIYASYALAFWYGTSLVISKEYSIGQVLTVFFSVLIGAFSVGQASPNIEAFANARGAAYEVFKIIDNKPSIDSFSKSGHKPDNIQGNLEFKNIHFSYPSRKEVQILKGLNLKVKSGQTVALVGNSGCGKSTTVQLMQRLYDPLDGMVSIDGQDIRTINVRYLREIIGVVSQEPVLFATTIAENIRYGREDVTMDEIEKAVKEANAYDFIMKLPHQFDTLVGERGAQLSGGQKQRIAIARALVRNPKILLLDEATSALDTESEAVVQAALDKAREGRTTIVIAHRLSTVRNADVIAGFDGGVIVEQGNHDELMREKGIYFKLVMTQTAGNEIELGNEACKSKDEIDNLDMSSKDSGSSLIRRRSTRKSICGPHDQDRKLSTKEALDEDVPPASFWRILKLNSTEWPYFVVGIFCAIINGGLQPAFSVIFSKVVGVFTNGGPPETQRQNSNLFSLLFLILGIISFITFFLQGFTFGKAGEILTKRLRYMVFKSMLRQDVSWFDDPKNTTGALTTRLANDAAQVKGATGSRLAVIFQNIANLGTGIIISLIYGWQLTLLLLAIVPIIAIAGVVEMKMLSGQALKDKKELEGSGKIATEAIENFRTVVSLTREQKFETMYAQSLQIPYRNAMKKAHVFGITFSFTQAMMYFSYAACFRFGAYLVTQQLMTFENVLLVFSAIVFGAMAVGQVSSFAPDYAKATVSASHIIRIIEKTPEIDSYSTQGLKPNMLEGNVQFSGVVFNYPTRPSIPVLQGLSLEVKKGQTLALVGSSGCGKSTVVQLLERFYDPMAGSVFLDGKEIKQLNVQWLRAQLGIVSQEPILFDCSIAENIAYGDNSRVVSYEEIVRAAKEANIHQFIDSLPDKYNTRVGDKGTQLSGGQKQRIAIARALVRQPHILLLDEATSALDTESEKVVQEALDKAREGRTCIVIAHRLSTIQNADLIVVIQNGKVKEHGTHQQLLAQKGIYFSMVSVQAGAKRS
Protocol: as §1, with “barrier. […]” for “barrier.”
as §2
Brains were homogenised in saline (0.5 ml) and ethanol (0.5 ml). […] The flow rate was 1 ml/min and the UV absorbance detector was set at 254 nm. […]

brain uptake ([1]; intravenous into tail vein, uptake over time (FIG. 15)): high brain uptake
brain to blood ratio ([1]; intravenous, FIG. 15, suitable for nuclear imaging): good brain to blood ratio
SMILES: OCCCCN1CCC(=C(c2ccccc2)c2ccc(F)cc2)CC1 [Compound [^18F]6]
wash-out of tracer from the brain by P-glycoprotein [2]: consistently washed out of the brain by P-glycoprotein
